The NIST ThermoML archive (doi:10.1016/j.tca.2008.05.002)

Test: molar heat capacity at saturation pressure
Conditions: Crystal 4, Small (less than 1 g) adiabatic calorimetry

CCCCn1cc[n+](C)c1.O=[N+]([O-])[O-] [1-butyl-3-methylimidazolium nitrate]
Conditions	molar heat capacity [J/K/mol]
5.05 K	0.5514
5.29 K	0.65
5.54 K	0.7586
5.8 K	0.8834
6.06 K	1.024
6.36 K	1.195
6.69 K	1.409
7.03 K	1.636
7.37 K	1.896
7.72 K	2.169
8.08 K	2.473
8.44 K	2.803
8.8 K	3.145
9.16 K	3.525
9.53 K	3.922
9.91 K	4.346
10.39 K	4.934
10.97 K	5.66
11.56 K	6.445
12.15 K	7.288
12.75 K	8.194
13.35 K	9.123
13.96 K	10.11
14.57 K	11.12
15.18 K	12.21
15.91 K	13.62
16.74 K	15.21
17.58 K	16.85
18.42 K	18.5
19.27 K	20.2
20.12 K	21.95
21.25 K	24.37
22.68 K	27.47
24.11 K	30.69
25.54 K	33.91
26.98 K	37.09
28.44 K	40.37
29.9 K	43.58
31.35 K	46.78
32.99 K	50.29
34.79 K	54.05
36.58 K	57.69
38.37 K	61.25
40.17 K	64.77
42.06 K	68.4
44.07 K	72.18
46.09 K	75.84
48.1 K	79.42
50.1 K	82.76
52.11 K	86.06
54.13 K	89.28
56.14 K	92.32
58.16 K	95.28
60.19 K	98.2
62.22 K	101.03
64.26 K	103.75
66.29 K	106.43
68.34 K	109.04
70.38 K	111.5
72.42 K	113.97
74.46 K	116.39
76.5 K	118.68
78.55 K	120.96
80.3 K	122.59
80.56 K	122.99
80.61 K	123.11
82.15 K	124.42
82.41 K	124.84
82.67 K	125.14
84.01 K	126.23
84.27 K	126.67
84.72 K	127.15
85.89 K	128.02
86.14 K	128.46
87.78 K	129.91
88.03 K	130.27
89.67 K	131.68
89.92 K	132.02
91.58 K	133.45
91.83 K	133.79
93.5 K	135.16
93.75 K	135.5
95.43 K	136.91
95.68 K	137.25
97.36 K	138.62
97.62 K	138.98
99.3 K	140.37
99.56 K	140.68
101.25 K	142.08
102.25 K	142.93
103.21 K	143.75
104.22 K	144.6
105.18 K	145.34
106.19 K	146.25
107.15 K	146.93
108.17 K	147.88
109.13 K	148.52
110.16 K	149.43
111.11 K	150.07
112.15 K	150.98
113.1 K	151.62
114.14 K	152.51
115.1 K	153.15
116.14 K	154.02
117.1 K	154.68
118.14 K	155.53
119.11 K	156.13
120.15 K	157.05
121.12 K	157.68
122.17 K	158.58
123.13 K	159.23
124.19 K	160.07
125.15 K	160.68
126.21 K	161.54
127.17 K	162.15
128.23 K	163.05
129.2 K	163.65
130.26 K	164.54
131.23 K	165.12
132.3 K	166.01
133.26 K	166.61
134.34 K	167.5
135.3 K	168.06
136.37 K	168.99
137.33 K	169.59
138.41 K	170.52
139.37 K	171.1
140.46 K	172.05
141.42 K	172.55
142.5 K	173.51
143.46 K	174.12
144.54 K	175.06
145.5 K	175.61
146.58 K	176.59
147.55 K	177.16
148.63 K	178.1
149.59 K	178.69
150.67 K	179.61
151.64 K	180.2
152.72 K	181.14
153.69 K	181.74
154.76 K	182.69
155.74 K	183.23
156.81 K	184.24
157.78 K	184.76
158.86 K	185.75
159.83 K	186.31
160.91 K	187.26
161.87 K	187.84
162.96 K	188.75
163.91 K	189.21
165 K	190.24
165.95 K	190.7
167.05 K	191.85
168 K	192.27
169.09 K	193.36
170.04 K	193.84
171.13 K	194.94
172.08 K	195.39
173.17 K	196.55
174.12 K	196.86
175.21 K	198.14
176.16 K	198.59
177.25 K	199.73
178.2 K	200.16
179.28 K	201.42
180.24 K	201.83
181.31 K	203.03
182.28 K	203.44
183.34 K	204.64
184.31 K	205.05
185.37 K	206.25
186.34 K	206.66
187.39 K	207.86
188.36 K	208.47
189.42 K	209.67
190.39 K	210.08
191.44 K	211.28
192.41 K	211.89
193.45 K	212.89
194.43 K	213.5
195.47 K	214.71
196.44 K	215.31
197.48 K	216.31
198.45 K	216.92
199.49 K	218.13
200.46 K	218.73
201.55 K	219.94
202.53 K	220.54
203.67 K	221.75
204.65 K	222.35
205.78 K	223.56
206.76 K	224.16
207.89 K	225.37
208.87 K	225.97
210 K	227.38
210.98 K	227.78
212.11 K	229.19
213.09 K	229.6
214.21 K	231
215.19 K	231.61
216.3 K	232.82
217.29 K	233.62
218.4 K	234.63
219.38 K	235.63
220.49 K	236.44
221.47 K	237.44
222.58 K	238.25
